Test results reported in US4141974A, “Veterinary method employing certain aureolic acid compounds” (Imperial Chemical Industries Limited, priority 1976, dated 1979).

Columns and labels:
[1] = test system: pigs; assay: Pig growth trial, 9 weeks (Example 11); type: in vivo
Description: Seventy-two pigs weighing approximately 20kg. each were allocated into 8 matched treatment groups of 9 pigs, on the basis of sex and live weight. Each treatment group was allocated to one particular diet, and each animal in each group was fed individually on its appropriate diet, accurately weighed according to a feeding scale based on live weight, and adjusted weekly. The daily live weight gain in gammes (DLWG) and food conversion ratio (FCR -- the ratio of kg. feed per kg. of live weight gain) were determined for each group at the end of a 9 week trial period.

[2] = test system: chickens; assay: Chicken growth trial, chromomycin A3 (Example 12); type: in vivo
Description: (§1) Groups of 20 randomised 1-day old chickens were place in small floor pens, bedded with wood shavings and provided with automatic drinking fountains. The birds in 16 randomly chosen such pens were fed for 6 days on a nutritionally balanced control diet containing no known growth promoter, and the birds in other pens (four pens per treatment diet) were fed for the same period on the same basal diet to which the indicated weight of mixed mithramycins obtained as in Example 2 or 3, or a known chicken growth promoter, penicillin or nitrovin as a positive control, was added. At the end of the test period, the mean weight per bird in the control group and each test group was determined and the percentage weight increase for each test group as compared with the control group was calculated. The following results were obtained:
The procedure described in Example 4 was repeated, using chromomycin A3, obtained from Takeda Chemical Industries Ltd., Osaka, Japan, instead of the mixed mithramycins.

[3] = test system: chickens; assay: Chicken growth trial, 1-day old chickens, 6 days (Example 4); type: in vivo; conditions: for Mean final weight per bird: * significant at p<0.001
Description: as §1, with “calculated.” for “calculated. The following results were obtained:”

[4] = test system: chickens; assay: Chicken growth trial, pen of 20 birds (Example 5); type: in vivo; conditions: for Mean final weight-20 birds: mean total weight of a pen of 20 birds
Description: as §1
In a further growth trial, the procedure described in Example 4 was repeated. In this case, the weights are expressed as the mean total weight of a pen of 20 birds.

[5] = test system: chickens; assay: Chicken growth trial, mixed mithramycins from Streptomyces argillaceus (Example 7); type: in vivo
Description: as §1
The procedure described in Example 4 was repeated, using the mixed mithramycins obtained by culturing Streptomyces argillaceus A.T.C.C. 12956 in known manner, and the following results were obtained: […]

[6] = test system: chickens; assay: Chicken growth trial, magnesium chelate of Example 2 (Example 8); type: in vivo; conditions: * P<0.001
Description: Groups of 20 randomised 1-day old chickens were place in small floor pens, bedded with wood shavings and provided with automatic drinking fountains. […] At the end of the test period, the mean weight per bird in the control group and each test group was determined and the percentage weight increase for each test group as compared with the control group was calculated.

[7] = test system: chickens; assay: Chicken growth trial, magnesium chelate of mithramycin A from S. argillaceus (Example 9); type: in vivo; conditions: * P<0.001
Description: The procedure described in Example 4 was repeated, using the magnesium chelate of mithramycin A, obtained in known manner from fermentation of S. argillaceus A.T.C.C.

[8] = test system: discard cockerels; assay: Growth trial in discard cockerels, 4 weeks (Example 10); type: in vivo, chicken; conditions: 10 ppm in basal diet
Description: as §1
The procedure described in Example 4 was repeated using 4 pens each of 30 discard cockerels for each diet, and allowing the trial to run for 4 weeks.

[9] = 10 ppm in basal diet, nitrovin * p<0.001, chromomycin A3 *** p<0.05

## COC(=O)N/N=C/c1c[n+]([O-])c2ccccc2[n+]1[O-] [carbadox]
[1]; high copper diet, 20 ppm, * significant at p<0.05
  FCR (food conversion ratio): 2.184 kg. feed per kg. of live weigh
[1]; high copper diet, 20 ppm, ** significant at p<0.01
  DLWG (daily live weight gain): 672.7 gammes
[1]; low copper diet, 20 ppm
  FCR (food conversion ratio): 2.292 kg. feed per kg. of live weigh
[1]; low copper diet, 20 ppm, * significant at p<0.05
  DLWG (daily live weight gain): 630.6 gammes

## CO[C@@H]1[C@H](O)C[C@@H](O[C@@H]2C[C@H](Oc3cc4cc5c(c(O)c4c(O)c3C)C(=O)[C@@H](O[C@H]3C[C@@H](O[C@H]4C[C@@H](O[C@H]6C[C@](C)(O)[C@@H](OC(C)=O)[C@H](C)O6)[C@H](O)[C@@H](C)O4)[C@H](O)[C@@H](C)O3)[C@H]([C@H](OC)C(=O)[C@@H](O)[C@@H](C)O)C5)O[C@H](C)[C@@H]2OC(C)=O)O[C@@H]1C [chromomycin A3]
[2]; 5 ppm in basal diet
  % effect v. control: 7.3%
[2]; 5 ppm in basal diet, ** significant at p<0.01
  Mean final weight per bird: 44.51 g
[2]; 10 ppm in basal diet
  % effect v. control: 5.4%
[2]; [9]
  Mean final weight per bird: 43.68 g

## N=C(N)NN=C(/C=C/c1ccc([N+](=O)[O-])o1)/C=C/c1ccc([N+](=O)[O-])o1 [nitrovin]
[3]; 10 ppm in basal diet
  % effect v. control (weight increase): 12.7%
  Mean final weight per bird: 42.99 g
[4]; 10 ppm in basal diet
  % effect v. control: 11.6%
  Mean final weight-20 birds: 826 g
[5]; 10 ppm in basal diet
  % effect v. control: 12.9%
  Mean final weight per birds: 45.2 g
[6]; 10 ppm in basal diet
  % effect v. control: 10.6%
  Mean final weight per bird: 45.67 g
[7]; 10 ppm in basal diet
  % effect v. control: 10.6%
  Mean final weight per bird: 45.67 g
[8]; ** significant at p<0.001
  Food conversion ratio: 1.800
[8]; mixed mithramycins * significant at p<0.01, nitrovin unmarked
  Mean final weight per bird: 339 g
[1]; high copper diet, 10 ppm
  DLWG (daily live weight gain): 579.2 gammes
  FCR (food conversion ratio): 2.308 kg. feed per kg. of live weigh
[1]; low copper diet, 10 ppm
  DLWG (daily live weight gain): 567.0 gammes
  FCR (food conversion ratio): 2.381 kg. feed per kg. of live weigh
[2]; 10 ppm in basal diet
  % effect v. control: 9.7%
[2]; [9]
  Mean final weight per bird: 45.46 g

## CC1(C)S[C@@H]2[C@H](NC(=O)Cc3ccccc3)C(=O)N2[C@H]1C(=O)O [penicillin]
[3]; 25 ppm in basal diet
  % effect v. control (weight increase): 11.6%
  Mean final weight per bird: 42.57 g
[4]; 25 ppm in basal diet
  % effect v. control: 18.25%
  Mean final weight-20 birds: 876 g
[5]; 25 ppm in basal diet
  % effect v. control: 18.8%
  Mean final weight per birds: 47.6 g
[6]; 25 ppm in basal diet
  % effect v. control: 16.1%
  Mean final weight per bird: 47.95 g
[7]; 25 ppm in basal diet
  % effect v. control: 16.1%
  Mean final weight per bird: 47.95 g
[2]; 25 ppm in basal diet
  % effect v. control: 12.7%
[2]; 25 ppm in basal diet, * significant at p<0.001
  Mean final weight per bird: 46.73 g
